In ChEMBL document CHEMBL1148629, “Pyrrolopyridazine MEK inhibitors” (Bioorg Med Chem Lett, 2006):

Columns and labels:
COLO 205 = experiment: Antiproliferative activity against human tumor Colo205 cell line; format: functional
[1] = target: Dual specificity mitogen-activated protein kinase kinase 1 (Homo sapiens, UniProt Q02750); experiment: Inhibitory activity against MEK
HT-29 = experiment: Antiproliferative activity against human tumor HT29 cell line; format: functional
[2] = target: Vascular endothelial growth factor receptor 2 (Homo sapiens) (UniProt P35968); experiment: Inhibitory activity against VEGFR2 upto 50 uM
Vascular endothelial growth factor receptor 2 (Homo sapiens), sequence (P35968 whole entry): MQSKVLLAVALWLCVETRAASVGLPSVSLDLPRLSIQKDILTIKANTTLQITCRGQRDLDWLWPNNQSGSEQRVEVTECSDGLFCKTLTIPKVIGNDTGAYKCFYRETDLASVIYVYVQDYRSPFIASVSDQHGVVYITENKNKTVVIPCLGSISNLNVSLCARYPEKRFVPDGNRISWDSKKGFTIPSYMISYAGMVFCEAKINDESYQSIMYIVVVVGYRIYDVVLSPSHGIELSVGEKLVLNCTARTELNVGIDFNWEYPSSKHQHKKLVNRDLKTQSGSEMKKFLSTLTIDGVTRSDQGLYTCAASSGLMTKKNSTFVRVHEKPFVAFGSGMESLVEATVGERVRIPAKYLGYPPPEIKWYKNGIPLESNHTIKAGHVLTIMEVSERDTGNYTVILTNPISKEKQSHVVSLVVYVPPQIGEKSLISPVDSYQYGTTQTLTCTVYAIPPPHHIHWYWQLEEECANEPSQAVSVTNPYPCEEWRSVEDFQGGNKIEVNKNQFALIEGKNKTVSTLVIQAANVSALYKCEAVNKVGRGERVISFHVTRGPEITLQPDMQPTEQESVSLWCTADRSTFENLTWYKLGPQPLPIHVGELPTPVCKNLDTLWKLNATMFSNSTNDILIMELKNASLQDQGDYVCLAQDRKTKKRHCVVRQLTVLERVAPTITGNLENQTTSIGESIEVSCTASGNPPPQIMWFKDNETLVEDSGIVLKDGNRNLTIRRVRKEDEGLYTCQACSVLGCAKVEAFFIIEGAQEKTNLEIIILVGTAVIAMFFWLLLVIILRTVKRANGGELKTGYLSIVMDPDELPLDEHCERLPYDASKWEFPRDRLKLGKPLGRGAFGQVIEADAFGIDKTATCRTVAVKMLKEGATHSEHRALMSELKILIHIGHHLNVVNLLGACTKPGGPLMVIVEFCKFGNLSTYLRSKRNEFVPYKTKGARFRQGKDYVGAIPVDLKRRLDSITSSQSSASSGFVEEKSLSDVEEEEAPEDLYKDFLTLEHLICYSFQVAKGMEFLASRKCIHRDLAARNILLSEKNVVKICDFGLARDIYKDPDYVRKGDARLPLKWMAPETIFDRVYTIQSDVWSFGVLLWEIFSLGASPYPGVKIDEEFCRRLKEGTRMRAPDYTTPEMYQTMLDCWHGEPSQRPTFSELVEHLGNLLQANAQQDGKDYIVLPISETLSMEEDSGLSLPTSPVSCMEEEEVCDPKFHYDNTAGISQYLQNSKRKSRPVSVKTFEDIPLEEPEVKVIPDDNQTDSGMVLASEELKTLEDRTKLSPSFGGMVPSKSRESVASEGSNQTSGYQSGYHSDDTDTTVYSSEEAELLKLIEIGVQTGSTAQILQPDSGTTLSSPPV

Dual specificity mitogen-activated protein kinase kinase 1, sequence (Q02750 whole entry): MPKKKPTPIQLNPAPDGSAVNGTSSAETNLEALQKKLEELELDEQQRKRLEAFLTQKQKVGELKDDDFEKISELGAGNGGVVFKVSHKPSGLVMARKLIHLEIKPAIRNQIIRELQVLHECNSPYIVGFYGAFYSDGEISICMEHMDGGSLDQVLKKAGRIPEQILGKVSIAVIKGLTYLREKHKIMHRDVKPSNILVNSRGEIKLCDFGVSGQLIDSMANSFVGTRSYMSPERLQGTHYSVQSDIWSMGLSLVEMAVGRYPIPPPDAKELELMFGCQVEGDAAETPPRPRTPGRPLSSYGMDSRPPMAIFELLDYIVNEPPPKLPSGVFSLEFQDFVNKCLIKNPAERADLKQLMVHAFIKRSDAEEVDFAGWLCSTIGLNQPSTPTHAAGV

IC50 [1] [µM] | inhibition [2] [%] | SMILES | Activity (COLO 205) [µM] | Activity (HT-29) [µM]
0.014 |  | CC(=O)Nc1cccc(C(=O)Nc2cn3ncc(C#N)c(Nc4ccc(Oc5ccccc5)cc4)c3c2C)c1 | 1.86 | 1.34
> 25 |  | CCOC(=O)c1cn2ncc(C#N)c(Nc3ccc(OCc4ccccc4)cc3)c2c1C |  | 
0.19 |  | Cc1c(N)cn2ncc(C#N)c(Nc3ccc(Oc4ccccc4)cc3)c12 |  | 
> 25 |  | Cc1c(C(=O)O)cn2ncc(CN)c(Nc3ccc(Oc4ccccc4)cc3)c12 |  | 
> 25 |  | CCOC(=O)c1cn2ncc(C#N)c(NCc3ccc(Oc4ccccc4)cc3)c2c1C |  | 
0.036 | < 5 | Cc1c(NC(=O)NCCN2CCOCC2)cn2ncc(C#N)c(Nc3ccc(Oc4ccccc4)cc3)c12 | 3.9 | 0.86
14.6 |  | Cc1c(NS(=O)(=O)c2ccccc2)cn2ncc(C#N)c(Nc3ccc(Oc4ccccc4)cc3)c12 |  | 
0.168 |  | Cc1c(-c2nc3ccccc3[nH]2)cn2ncc(C#N)c(Nc3ccc(Oc4ccccc4)cc3)c12 |  | 
0.033 |  | Cc1c(NC(=O)NCCN2CCOCC2)cn2ncc(C#N)c(Nc3ccc(Oc4ccccc4F)cc3)c12 |  | 
1.11 |  | CCOC(=O)c1cn2ncc(C#N)c(Nc3ccc(C(=O)c4ccccc4)cc3)c2c1C |  | 
> 25 |  | Cc1c(C(C)(C)O)cn2ncc(C#N)c(Nc3ccc(Oc4ccccc4)cc3)c12 |  | 
0.058 | < 5 | Cc1c(NC(=O)OCCN2CCOCC2)cn2ncc(C#N)c(Nc3ccc(Oc4ccccc4)cc3)c12 | 2.88 | 3.76
0.642 |  | CCOC(=O)c1cn2ncc(C#N)c(Nc3ccc(Oc4ccc(Cl)cc4)cc3)c2c1C |  | 
0.521 |  | Cc1c(OCCN2CCOCC2)cn2ncc(C#N)c(Nc3ccc(Oc4ccccc4)cc3)c12 |  | 
0.048 |  | COc1ccccc1Oc1ccc(Nc2c(C#N)cnn3cc(NC(=O)OCCN4CCOCC4)c(C)c23)cc1 | 2.06 | 3.78
0.203 |  | CCOC(=O)c1cn2ncc(C#N)c(Nc3ccc(Oc4ccccc4)cc3)c2c1CO |  | 
2.32 |  | CCOC(=O)c1cn2ncc(C#N)c(Nc3ccc(Nc4ccccc4)cc3)c2c1C |  | 
0.042 |  | Cc1c(NC(=O)c2ccccc2)cn2ncc(C#N)c(Nc3ccc(Oc4ccccc4)cc3)c12 | 2.42 | 2.13

IC50 [1] [µM] | inhibition [2] [%] | SMILES | Activity (COLO 205) [µM] | Activity (HT-29) [µM]
0.386 |  | Cc1c(C(=O)NCCN2CCOCC2)cn2ncc(C#N)c(Nc3ccc(Oc4ccccc4)cc3)c12 |  | 
> 25 |  | CCOC(=O)c1cn2ncc(C#N)c(Nc3ccccc3)c2c1C |  | 
0.024 |  | COc1ccccc1Oc1ccc(Nc2c(C#N)cnn3cc(NC(=O)NCCN4CCOCC4)c(C)c23)cc1 |  | 
> 25 |  | CC(=O)NCc1cnn2cc(C(=O)O)c(C)c2c1Nc1ccc(Oc2ccccc2)cc1 |  | 
0.241 |  | Cc1ccn2ncc(C#N)c(Nc3ccc(Oc4ccccc4)cc3)c12 | >10 | >10
> 25 |  | Cc1c(C(=O)O)cn2ncc(CNS(C)(=O)=O)c(Nc3ccc(Oc4ccccc4)cc3)c12 |  | 
5.42 |  | CCOC(=O)c1cn2ncc(C#N)c(Oc3ccc(Oc4ccccc4)cc3)c2c1C |  | 
0.566 |  | CCOC(=O)c1cn2ncc(C#N)c(Nc3ccc(Oc4ccccc4)cc3)c2c1COCCOC |  | 
0.147 |  | Cc1c(C(=O)O)cn2ncc(C#N)c(Nc3ccc(Oc4ccccc4)cc3)c12 |  | 
0.076 |  | COc1cccc(Oc2ccc(Nc3c(C#N)cnn4cc(NC(=O)OCCN5CCOCC5)c(C)c34)cc2)c1 | 0.72 | 2.35
0.068 |  | CCOC(=O)c1cn2ncc(C#N)c(Nc3ccc(Cc4ccccc4)cc3)c2c1C |  | 
0.018 |  | CNC(=O)Nc1cn2ncc(C#N)c(Nc3ccc(Oc4ccccc4)cc3)c2c1C |  | 7.38
0.331 |  | CCOCc1c(C(=O)OCC)cn2ncc(C#N)c(Nc3ccc(Oc4ccccc4)cc3)c12 |  | 
0.023 |  | COC(=O)Nc1cn2ncc(C#N)c(Nc3ccc(Oc4ccccc4)cc3)c2c1C |  | 7.64
0.029 |  | COc1cccc(Oc2ccc(Nc3c(C#N)cnn4cc(NC(=O)NCCN5CCOCC5)c(C)c34)cc2)c1 |  | 
3.47 |  | CCOC(=O)c1cn2ncnc(Nc3ccc(Oc4ccccc4)cc3)c2c1C |  | 
> 25 |  | CCOC(=O)c1cn2ncc(C#N)c(Nc3ccc(-c4ccccc4)cc3)c2c1C |  | 
